Results: US20240189201A1, “HAIR SERUM AND SUPPLEMENT” (priority 2021, published 2024)

Assay: Comparison of hair serum compositions formulated with different crystalline CBDs (type A vs type B)
Settings: hair serum according to Example 2, differing only in the crystalline CBD used
Description: Two hair serum compositions are prepared according to Example 2, the only difference being that the crystalline CBD used in the formulation is either of type A (needle-like crystals; FIG. 1) or type B (bunch/cluster-like; FIG. 2).
Type A crystalline CBD is sourced from Enecta, while type B CBD is sourced from Pharma Hemp.

## C=C(C)[C@@H]1CCC(C)=C[C@H]1c1c(O)cc(CCCCC)cc1O [type A CBD, Cannabidiol]
  Activity / potency of CBD in hair serum, type A versus type B: significantly more active than type B CBD
Listed as crystal structure A
  Activity / potency of CBD in hair serum, type A versus type B: significantly more potent than CBD with a different crystal structure
